In brackets after ≈: the same amount, converted by molar mass.
Key:
Type in all cases: cell-based
[1] = system: Klebsiella pneumoniae ATCC 10031; assay: Microdilution test (MIC); conditions: ATCC10031
Protocol: (§1) The minimum inhibiting concentrations (MICs) were determined for the following bacterial strains: Pseudomonas aeruginosa NCTC 10701, NCTC 10662, SG 137, ATCC 27853, KW 799 WT and KW 799/61, E. coli DCO, DC2 and ATCC 25922, Serratia marcescens SG 621; Salmonella gallinarum ATCC 9184, Klebsiella pneumoniae ATCC 10031 and SG 117.

[2] = system: Pseudomonas aeruginosa SG 137; assay: Microdilution test (MIC); conditions: Pseudomonas aeruginosa, SG137; P. aeruginosa SG 137
Protocol: as §1

[3] = system: Pseudomonas aeruginosa ATCC 27853; assay: Microdilution test (MIC); conditions: Pseudomonas aeruginosa, ATCC27853; P. aeruginosa ATCC 27853
Protocol: as §1

E. coli ATCC 25922 = assay: Microdilution test (MIC); conditions: Escherichia coli, ATCC25922
Protocol: as §1

[4] = system: Stenotrophomonas maltophilia GN 12873; assay: Microdilution test (MIC); conditions: GN12873
[5] = system: Pseudomonas aeruginosa K 407; conditions: Pseudomonas aeruginosa K407
From the text: (§2) In the indicator mutants, the synthesis of the respective siderophores, e.g. pyoverdin, pyochelin, enterobactin, aerobactin or yersiniabactin, or the biosynthesis of aromatic compounds, is blocked, or there is a lack of receptors for enterobactin, pyochelin or pyoverdin and for other important components for the bacterial transport of iron (e.g. the membrane proteins Cir, Fiu, FepA and TonB). Under conditions where there is a lack of iron, these mutants therefore cannot grow or can only grow to a very slight extent. In particular, the following indicator mutants were used: Pseudomonas aeruginosa PAO 6609, K 407, 690; E. coli AB 2847, Salmonella typhimurium enb-7, TA 270; Klebsiella pneumoniae KN 4401; Yersinia enterocolitica WAH; Proteus mirabilis 12 (wild); Proteus vulgaris 718 (wild) and Morganella morganii SBK3 (wild). […] The controls used were ferrioxamine E for the Pseudomonas strains, ferrioxamine G and enterobactin for the Salmonella strains, ferrichrome for the E. coli, Klebsiella and Y. enterocol. strains, and 3,4-dihydroxybenzylidene-2,4,6-trimethylaniline for Morganella morganii (see the above literature reference by R. Reissbrodt et al.).
(§3) The annotations + and (+) relate to non-specific promotion of growth.

[6] = system: Salmonella typhimurium TA 2700
From the text: as §2, §3

[7] = system: Pseudomonas aeruginosa 690
From the text: as §2, §3

[8] = system: Morganella morganii SBK3 (wild); conditions: M. morg. SBK 3
From the text: as §2, §3

E. coli AB 2847 = system: E. coli AB 2847
From the text: as §2, §3

[9] = system: Pseudomonas aeruginosa PAO 6609
From the text: as §2, §3

[10] = system: Proteus mirabilis 12 (wild); conditions: Proteus mir. 12
From the text: as §2, §3

[11] = system: Klebsiella pneumoniae KN 4401; conditions: Klebsiella KN 4401
From the text: as §2, §3

[12] = system: Proteus vulgaris 718 (wild); conditions: Proteus vul. 718
From the text: as §2, §3

[13] = system: Salmonella typhimurium enb-7
From the text: as §2, §3

MIC [1] [µg/mL]	MIC [2] [µg/mL]	MIC [3] [µg/mL]	MIC (E. coli ATCC 25922) [µg/mL]	MIC [4] [µg/mL]	SMILES	Growth areas of siderophore indicator strains (diameter) [5] [mm]	Growth areas of siderophore indicator strains (diameter) [6] [mm]	Growth areas of siderophore indicator strains (diameter) [7] [mm]	Growth areas of siderophore indicator strains (diameter) [8] [mm]	Growth areas of siderophore indicator strains (diameter) (E. coli AB 2847) [mm]	Growth areas of siderophore indicator strains (diameter) [9] [mm]	Growth areas of siderophore indicator strains (diameter) [10] [mm]	Growth areas of siderophore indicator strains (diameter) [11] [mm]	Growth areas of siderophore indicator strains (diameter) [12] [mm]	Growth areas of siderophore indicator strains (diameter) [13] [mm]
< 0.05	0.1 (≈ 0.261 µM)	0.2 (≈ 0.522 µM)	< 0.05	> 100	C[C@@H](O)[C@H]1C(=O)N2C(C(=O)O)=C(S[C@@H]3CN[C@H](C(=O)N(C)C)C3)[C@H](C)[C@H]12 [Meropenem, reference compound]										
					CC(=O)Oc1ccc(C=Nc2ccc(C(=O)O)cc2)cc1OC(C)=O [Substance 6, 4-(3,4-Diacetoxybenzylideneamino)-benzoic Acid]	17	0	19	25	17	14	23	25	25	34
					CC(=O)Oc1ccc(N=Cc2cc(C(=O)O)cc(O)c2O)cc1OC(C)=O [Substance 7, 3-[(3,4-Diacetoxyphenylimino)-methyl]-4,5-dihydroxybenzoic Acid]	0	0	0	22	0	0	20	23	22	0
					O=C(O)c1cccc(N=Nc2ccc(O)c(O)c2)c1 [Substance 8, 3-(3,4-Dihydroxyphenylazo)benzoic Acid]	15	0	0	20	13	13	20	20	20	0

Source: patent US6380181B1, “Synthetic catechol derivatives, method for production and use thereof” (priority 1996, dated 2002)
